From patent US20240181081A1, “Compositions and Methods for Treatment of Myotonic Dystrophy Type 1 with CRISPR/SACAS9” (Vertex Pharmaceuticals Incorporated, priority 2021, published 2024)

Experiments:
[1] = tested on: CTG repeat expansion in the 3′ UTR of human DMPK gene; test: DOUBLE-cut screening: CTG repeat excision by loss-of-signal ddPCR in primary DM1 patient myoblasts; assay type: cell-based; details: sgRNA pair RNP, mean of upstream and downstream ddPCR assays; for % of CTG repeat excision efficiency by ddPCR (DNA-PKi): 3 μM Compound 6 for 48 hrs; for % of CTG repeat excision efficiency by ddPCR (Vehicle): DMSO 48 hrs
Protocol: (§1) RNPs were assembled with recombinant SaCas9 protein (Aldevron) and chemically modified sgRNAs (Synthego) at a ratio of 1:3 (protein:sgRNA). For SINGLE-cut screening, RNP complexes were assembled with 30 pmol of SaCas9 and 90 pmol of sgRNA in P5 Primary Cell Nucleofector Solution (Lonza). After incubation at room temperature for 20 minutes, 10 μL of RNP complex was mixed with two hundred thousand primary myoblasts resuspended in 10 μL of P5 Nucleofector Solution. For DOUBLE-cut screening, RNP complexes were first assembled for individual sgRNAs with 20 pmol of SaCas9 protein and 60 pmol of sgRNAs in 5 μL of P5 Nucleofector Solution. After incubation at room temperature for 20 minutes, the two RNP complexes (one for upstream sgRNA and one for downstream sgRNA) were mixed at 1:1 ratio and then further mixed with two hundred thousand primary myoblasts resuspended in 10 μL of P5 Nucleofector Solution.
(§2) The Nucleofector 96-well Shuttle System (Lonza) was used to deliver the SaCa9/sgRNA RNPs into primary DM1 patient myoblasts using the nucleofection program CM138. Following nucleofection, myoblasts from each well of nucleofection shuttle were split into six wells of the 96-well cell culture plate (Greiner, 655090) coated with matrigel. The first three wells were treated with DMSO for 48 hrs before changing to fresh myoblast growth medium, and the other three wells were treated with 3 μM of DNA-PKi Compound 6 for 48 hrs before changing to fresh myoblast growth medium. 72 hrs post nucleofection, two wells of DMSO-treated myoblasts and two wells of DNA-PKi-treated myoblasts from each nucleofection were harvested for genomic DNA extraction using the Kingfisher Flex purification system (Thermal Fisher), whereas one well of DMSO-treated myoblasts and one well of DNA-PKi-treated myoblasts were stained for RNA foci by FISH staining.
The primers and probes of ddPCR were designed using the online primer design software Primer3Plus (http://www.bioinformatics.nl/cgi-bin/primer3plus/primer3plus.cgi). The two Target primers/probe sets were used to detect CTG repeat excision, and the Reference primers/probe set was used to amplify a region located in Exon 1 of human DMPK gene and it served as a reference control for the Target sets. The 24 μL of ddPCR reaction consisted of 12 μL of Supermix for Probes (no dUTP) (Bio-Rad Laboratories), 1 μL of Reference primers mix (21.6 μM), 1 μL of Reference probe (6 μM), 1 μL of Target primers mix (21.6 μM), 1 μL of Target probe (6 μM), and 8 μL of sample genomic DNA. Droplets were generated using probe oil with the QX200 Droplet Generator (Bio-Rad Laboratories). Droplets were transferred to a 96-well PCR plate, sealed and cycled in a C1000 deep well Thermocycler (Bio-Rad Laboratories) under the following cycling protocol: 1 cycle at 95° C. for 10 min; 40 cycles of 94° C. for 30 sec, and 58° C. for 1 min; 1 cycle at 98° C. for 10 min (for enzyme inactivation). The cycled plate was then transferred and read in the FAM and HEX channels using the Bio-Rad QX200 Droplet Reader (Bio-Rad Laboratories). ddPCR analysis was performed with the Bio-Rad QuantaSoft Pro Software.
Next, DOUBLE-cut screening was performed to assess the efficiency of paired sgRNAs-induced CTG repeat excision and RNA foci reduction. 90 SaCas9 sgRNA pairs formed by one upstream sgRNA and one downstream sgRNA were assembled with recombinant SaCas9 protein into RNP complex and nucleofected into primary DM1 patient myoblasts. Nucleofected myoblasts were treated with either DMSO (vehicle) or 3 μM of Compound 6 (DNA-PKi) for 48 hrs. 72 hrs post nucleofection, myoblasts were subjected to either genomic DNA isolation or RNA foci staining.
One upstream and one downstream loss-of-signal droplet digital PCR (ddPCR) assays were used to determine the efficiency of CTG repeat excision. ddPCR signals would be abolished upon excision of the CTG repeat expansion in these loss-of-signal ddPCR assays. […]

[2] = tested on: CUG RNA foci in primary DM1 patient myoblasts; test: DOUBLE-cut screening: FISH staining of RNA foci in primary DM1 patient myoblasts; assay type: cell-based, human; details: sgRNA pair RNP, 72 hrs post nucleofection; for % of CUG foci free nuclei (DNA-PKi): 3 μM Compound 6 for 48 hrs; for % of CUG foci free nuclei (Vehicle): DMSO 48 hrs
Protocol: as §1, §2
Primary myoblasts were fixed for 15 min with 4% paraformaldehyde (PFA) and washed five times with 1×PBS for 10 min each at room temperature. Before staining, cells were permeabilized with 0.5% triton X-100 in 1×PBS for 5 min at room temperature, and then washed with 30% formamide and 2× saline-sodium citrate (SSC) mixture for 10 min at room temperature. Cells were then stained with 1 ng/μL of Cy3-PNA(CAG) 5 probe (PNA Bio, F5001) diluted in 30% formamide, 2×SSC, 2 μg/mL BSA, 66 μg/mL yeast tRNA, and 2 mM vanadyl complex for 15 min at 80° C. Following probe staining, cells were then washed in 30% formamide and 2×SSC mixture for 30 min at 42° C., then washed in 30% formamide and 2×SSC mixture for 30 min at 37° C., and then washed in 1×SSC solution for 10 min at room temperature, and finally washed in 1×PBS for 10 min at room temperature. Cells were next stained with anti-MBNL1 antibody (Santa Cruz, 3A4) diluted in 1% bovine serum albumin (BSA) for overnight at 4° C., and washed twice with 1×PBS for 10 min each at room temperature. Cells were then incubated with the secondary antibody goat […] Alexa 647 (Thermo Fisher, A32728) diluted in 1% BSA for 1 hr at room temperature, and washed twice with 1×PBS for 10 min each at room temperature. Next, cells were stained with Hoechst solution (Thermo Fisher, H3569) at 0.1 mg/ml for 5 min, and washed once with 1×PBS for 5 min. PBS was aspirated and fresh 100 μl of fresh PBS was added to each well. High-throughput acquisition of images was completed with the ImageXpress Micro Confocal High-Content Imaging System (Molecular Devices). RNA foci quantifications were accomplished with a customized analysis module of the MetaXpress program (Molecular Devices).
Next, DOUBLE-cut screening was performed to assess the efficiency of paired sgRNAs-induced CTG repeat excision and RNA foci reduction. 90 SaCas9 sgRNA pairs formed by one upstream sgRNA and one downstream sgRNA were assembled with recombinant SaCas9 protein into RNP complex and nucleofected into primary DM1 patient myoblasts. […]

| Substance | % of CTG repeat excision efficiency by ddPCR (DNA-PKi) [1] [%] | % of CTG repeat excision efficiency by ddPCR (Vehicle) [1] [%] | % of CUG foci free nuclei (DNA-PKi) [2] [%] | % of CUG foci free nuclei (Vehicle) [2] [%] |
| --- | --- | --- | --- | --- |
| SaU1 + SaD17: SaCas9 sgRNA pair, SEQ ID NOs: 1 and 25 (guide 1 GCCCCGGAGTCGAAGACAGTTC; guide 2 TTTATTCGCGAGGGTCGGGGGT; listed as DNA, chemistry not fully specified) | 53.66 | 26.29 | 75.32 | 45.51 |
| SaU7 + SaD2: SaCas9 sgRNA pair, SEQ ID NOs: 7 and 10 (guide 1 CGCGGCCGGCGAACGGGGCTCG; guide 2 TCGGCCAGGCTGAGGCCCTGAC; listed as DNA, chemistry not fully specified) |  |  | 81.28 | 70.29 |
| SaU8 + SaD15: SaCas9 sgRNA pair, SEQ ID NOs: 8 and 23 (guide 1 GGCTCGAAGGGTCCTTGTAGCC; guide 2 GACAATAAATACCGAGGAATGT; listed as DNA, chemistry not fully specified) | 57.24 | 39.47 | 86.21 | 76.50 |
| SaU2 + SaD12: SaCas9 sgRNA pair, SEQ ID NOs: 2 and 20 (guide 1 ACTCAGTCTTCCAACGGGGCCC; guide 2 TCAGTGCATCCAAAACGTGGAT; listed as DNA, chemistry not fully specified) | 58.68 | 36.47 | 83.77 | 76.56 |
| SaU8 +SaD13: SaCas9 sgRNA pair, SEQ ID NOs: 8 and 21 (guide 1 GGCTCGAAGGGTCCTTGTAGCC; guide 2 CCCAACAACCCCAATCCACGTT; listed as DNA, chemistry not fully specified) | 51.64 | 29.46 | 77.05 | 43.66 |
| SaU8 +SaD20: SaCas9 sgRNA pair, SEQ ID NOs: 8 and 28 (guide 1 GGCTCGAAGGGTCCTTGTAGCC; guide 2 AGATGGAGGGCCTTTTATTCGC; listed as DNA, chemistry not fully specified) | 62.59 | 39.72 | 81.21 | 71.20 |
| SaU7 + SaD17: SaCas9 sgRNA pair, SEQ ID NOs: 7 and 25 (guide 1 CGCGGCCGGCGAACGGGGCTCG; guide 2 TTTATTCGCGAGGGTCGGGGGT; listed as DNA, chemistry not fully specified) | 55.97 | 27.41 | 75.53 | 36.12 |
| SaU7 +SaD3: SaCas9 sgRNA pair, SEQ ID NOs: 7 and 11 (guide 1 CGCGGCCGGCGAACGGGGCTCG; guide 2 CAACGATAGGTGGGGGTGCGTG; listed as DNA, chemistry not fully specified) | 61.82 | 41.26 | 80.45 | 39.24 |
| SaU7 + SaD19: SaCas9 sgRNA pair, SEQ ID NOs: 7 and 27 (guide 1 CGCGGCCGGCGAACGGGGCTCG; guide 2 AGGACCCCCACCCCCGACCCTC; listed as DNA, chemistry not fully specified) | 56.22 | 28.45 | 81.47 | 42.75 |
| SaU1 + SaD11: SaCas9 sgRNA pair, SEQ ID NOs: 1 and 19 (guide 1 GCCCCGGAGTCGAAGACAGTTC; guide 2 CAAAACGTGGATTGGGGTTGTT; listed as DNA, chemistry not fully specified) | 52.38 | 26.52 | 74.03 | 41.32 |
| SaU8 + SaD7: SaCas9 sgRNA pair, SEQ ID NOs: 8 and 15 (guide 1 GGCTCGAAGGGTCCTTGTAGCC; guide 2 GGGGCGCGGGATCCCCGAAAAA; listed as DNA, chemistry not fully specified) | 53.42 | 38.19 | 82.90 | 52.92 |
| SaU3 + SaD11: SaCas9 sgRNA pair, SEQ ID NOs: 3 and 19 (guide 1 ACTCCGGGGCCCCGTTGGAAGA; guide 2 CAAAACGTGGATTGGGGTTGTT; listed as DNA, chemistry not fully specified) | 58.33 | 32.84 | 73.87 | 50.28 |
| SaU1 + SaD2: SaCas9 sgRNA pair, SEQ ID NOs: 1 and 10 (guide 1 GCCCCGGAGTCGAAGACAGTTC; guide 2 TCGGCCAGGCTGAGGCCCTGAC; listed as DNA, chemistry not fully specified) | 54.31 | 47.82 | 84.27 | 76.74 |
| SaU8 + SaD2: SaCas9 sgRNA pair, SEQ ID NOs: 8 and 10 (guide 1 GGCTCGAAGGGTCCTTGTAGCC; guide 2 TCGGCCAGGCTGAGGCCCTGAC; listed as DNA, chemistry not fully specified) |  |  | 82.91 | 76.39 |
